The record followed here is patent US6723364B1, “Fog treatment method using a liquid composition for treating fruits and vegetables and implementing device” (Xeda International, priority 1998, dated 2004).

In the test the test system is potato tubers. Briefly: Sprouting-inhibiting treatment of potato tubers by thermal fogging. It counts as in vivo. Particulars: after 5 months; cold room 8 to 9° C.; 45 g/tonne then 15 g/tonne every 20 days by thermal fogging. The method, then: The effectiveness of eugenol and of isoeugenol in the sprouting-inhibiting treatment of potato tubers was evaluated and compared with that of other terpenes.
The following compositions were used in the case of eucalyptol, eugenol, isoeugenol, limonene, safrole and terpineol:
60% by weight of terpene;
7% by weight of a nonionic emulsifier;
33% by weight of butyl acetate.
In the case of L-carvone, the following composition was employed:
30% by weight of L-carvone;
10% by weight of ethanol;
5% by weight of nonionic emulsifier;
35% by weight of propylene glycol.
Isopropyl chlorophenylcarbamate (CIPC) is a compound used in the art as sprouting inhibitor for potato tubers. Its activity was compared with that of eugenol and of isoeugenol.
The composition based on isopropyl chloro-phenylcarbamate has the following formulation: […]
20% by weight of isopropyl chlorophenyl-carbamate;
50% by weight of propylene glycol;
10% by weight of nonionic emulsifier;
Each of the compositions tested was applied by thermal fogging. The temperature at the outlet of the thermal fogging device was 240° C., except in the case of the compositions based on L-carvone and on CIPC, where it was 180° C.
The amount of composition which has to be applied is calculated in each case so as to obtain an equivalent concentration of active material on the potato tubers.
In this example, repeated applications were carried out by following the following protocol:
45 g/tonne of tubers at the beginning of storage;
15 g/tonne of tubers every 20 days; so that, after 6 months, 165 g of active principle have been applied per tonne of tubers.
During storage, the tubers were stored in a cold room at a temperature of 8 to 9° C.

Regarding L-carvone, the “Loss in weight of the tubers” value was found to be 3.3%, the “Total weight of the sprouts >2 mm” value was 42.0 g, the “Tubers at the white point stage” value is 8.7% and the “Tubers with sprouts 2 to 5 mm” value turned out to be 28.8%. Moreover, the “Tubers with sprouts <2 mm” value was 32.3%, the “Tubers with sprouts >2 mm” value is on record as 55.0%, the “Tubers with sprouts >5 mm” value is on record as 26.2% and the Unsprouted tubers is on record as 4.0%.

With `C=C(C)[C@H]1CC=C(C)CC1` [LIMONENE, limonene], the “Loss in weight of the tubers” value stood at 4.5%, the “Total weight of the sprouts >2 mm” value was 283.8 g, the “Tubers at the white point stage” value is 1.2% and the “Tubers with sprouts 2 to 5 mm” value is 8.7%. In addition, the “Tubers with sprouts <2 mm” value was 1.5%, the “Tubers with sprouts >2 mm” value is on record as 96.8%, the “Tubers with sprouts >5 mm” value worked out at 88.1% and the Unsprouted tubers came to 0.5%.
